Data on three molecules can be found in patent US20200054651A1, “COMPOSITIONS AND METHODS FOR MODULATING PPP2R1A” (The Regents of the University of California, priority 2017, published 2020).

The structures appear in SMILES notation.

Assay [1] deals with 231MFP breast cancer cells. Kind of assay: 231MFP serum-free cell survival (Hoechst staining). In kind it is cell-based. To be noted: 48 h.
Assay [2] addresses T1, C377 of PPP2R1A (Homo sapiens, UniProt P30153).
T1 construct: pre-incubating withaferin A (10 μM) for 30 min in 231MFP breast cancer cell proteomes; endogenous in cells; host or cells: 231MFP breast cancer cells (MDA-MB-231 derived)
Kind of assay: isoTOP-ABPP after in situ treatment of 231MFP cells. It is filed as binding. To be noted: 4 h in 231MFP cells in situ, IAyne labeling ex situ. On the procedure:
IsoTOP-ABPP studies were performed using the methods described in “Nature 534(7608), 570-574 (2016)” by Backus K. M., et al. and “Nature 468(7325), 790-795 (2010)” by Weerapana E., et al. […] Then, IAyne (iodoacetamide-alkyne) labeling was performed for 1 hour at room temperature. CuAAC was used by sequential addition of tris(2-carboxyethyl)phosphine (1 mM), tris[(1-benzyl-1H-1,2,3-triazol-4-yl)methyl]amine (34 μM), copper (II) sulfate (1 mM), and biotin-linker-azide where the linker was functionalized with a TEV protease recognition sequence along with an isotopically light or heavy valine for treatment of control or treated proteome, respectively. After click reactions, proteomes were precipitated by centrifugation at 6500×g, washed in ice-cold methanol, combined in a 1:1 control/treated ratio, washed again, then denatured and re-solubilized by heating in 1.2% SDS/PBS to 80° C. for 5 minutes. Insoluble components were precipitated by centrifugation at 6500×g and soluble proteome was diluted in 0.2% SDS/PBS (5 ml). Labeled proteins were bound to avidin-agarose beads (170 μl re-suspended beads/sample) while rotating overnight at 4° C. Bead-linked proteins were enriched by washing three times each in PBS and water, then re-suspended in urea/PBS (6 M), reduced in TCEP (1 mM), alkylated with iodoacetamide (18 mM), then washed and re-suspended in urea/PBS (2 M), and finally trypsinized overnight with 0.5 μg/μl sequencing grade trypsin. Tryptic peptides were eluted off. Beads were washed in PBS (3 times) and water (3 times), washed in TEV buffer solution (water, TEV buffer, 100 μM dithiothreitol), and re-suspended in buffer with Ac-TEV protease and then incubated overnight. Peptides were diluted in water, acidified with formic acid (1.2 M), and prepared for analysis.
Peptides from all proteomic experiments were pressure-loaded onto an Agilent 600 series RP-HPLC system equipped with a capillary tubing (250 mm) packed with Aqua C18 reverse-phase resin (4 cm). The system was previously equilibrated with a gradient (0% B to 100% B over 10 minutes, 100% B for 5 minutes, then 0% B for 5 minutes; buffer A: 95:5 water:acetonitrile, 0.1% formic acid; buffer B: 80:20 acetonitrile:water, 0.1% formic acid). The samples were then attached using a MicroTee PEEK 360 μm fitting to a laser pulled column (13 cm) packed with Aqua C18 reverse-phase resin (10 cm) and strong-cation exchange resin (3 cm) for isoTOP-ABPP studies. Samples were analyzed using an Q Exactive Plus mass spectrometer using a 5-step Multidimensional Protein Identification Technology (MudPIT) program. The system was run using a gradient (5% B to 55% B; buffer A: 95:5 water:acetonitrile, 0.1% formic acid; buffer B: 80:20 acetonitrile:water, 0.1% formic acid), along with a salt bump feeding aqueous ammonium acetate (500 mM) at an increment of 0%, 25%, 50%, 80%, to 100%. Data was collected in data-dependent acquisition mode with dynamic exclusion enabled (60 sec). One full MS scan (400-1800 m/z) (MS1 scan) was conducted, followed by MS2 scan (ITMS) (15 times) of the most abundant ions. Heated capillary temperature was set to 200° C. and the nanospray voltage was set to 2.75 kV.
Data was extracted in the form of MS1 and MS2 files using Raw Extractor 1.9.9.2 and searched against the Uniprot […] database using ProLuCID search methodology in IP2 v.3, described in “J Proteomics 129:16-24 (2015)” by Xu T, et al. Cysteine residues were searched with a static modification for carboxyaminomethylation (+m/z 57.02146), up to two differential modifications for methionine oxidation, and either the light or heavy TEV tags (+m/z 464.28596 or +m/z 470.29977, respectively). Peptides were required to have at least one tryptic end and to contain the TEV modification. ProLUCID data was filtered through DTASelect to achieve a peptide false-positive rate below 1%. […]

Assay [3] concerns the target T1, C377 of PPP2R1A. Kind of assay: Competitive isoTOP-ABPP in 231MFP proteomes in vitro. It is filed as binding. The method, then: IsoTOP-ABPP studies were performed using the methods described in “Nature 534(7608), 570-574 (2016)” by Backus K. M., et al. and “Nature 468(7325), 790-795 (2010)” by Weerapana E., et al. Proteome samples diluted in PBS were treated with Withaferin A or vehicle for 30 minutes at 37° C. Then, IAyne (iodoacetamide-alkyne) labeling was performed for 1 hour at room temperature. CuAAC was used by sequential addition of tris(2-carboxyethyl)phosphine (1 mM), tris[(1-benzyl-1H-1,2,3-triazol-4-yl)methyl]amine (34 μM), copper (II) sulfate (1 mM), and biotin-linker-azide where the linker was functionalized with a TEV protease recognition sequence along with an isotopically light or heavy valine for treatment of control or treated proteome, respectively. After click reactions, proteomes were precipitated by centrifugation at 6500×g, washed in ice-cold methanol, combined in a 1:1 control/treated ratio, washed again, then denatured and re-solubilized by heating in 1.2% SDS/PBS to 80° C. for 5 minutes. Insoluble components were precipitated by centrifugation at 6500×g and soluble proteome was diluted in 0.2% SDS/PBS (5 ml). Labeled proteins were bound to avidin-agarose beads (170 μl re-suspended beads/sample) while rotating overnight at 4° C. Bead-linked proteins were enriched by washing three times each in PBS and water, then re-suspended in urea/PBS (6 M), reduced in TCEP (1 mM), alkylated with iodoacetamide (18 mM), then washed and re-suspended in urea/PBS (2 M), and finally trypsinized overnight with 0.5 μg/μl sequencing grade trypsin. Tryptic peptides were eluted off. Beads were washed in PBS (3 times) and water (3 times), washed in TEV buffer solution (water, TEV buffer, 100 μM dithiothreitol), and re-suspended in buffer with Ac-TEV protease and then incubated overnight. Peptides were diluted in water, acidified with formic acid (1.2 M), and prepared for analysis.
Peptides from all proteomic experiments were pressure-loaded onto an Agilent 600 series RP-HPLC system equipped with a capillary tubing (250 mm) packed with Aqua C18 reverse-phase resin (4 cm). The system was previously equilibrated with a gradient (0% B to 100% B over 10 minutes, 100% B for 5 minutes, then 0% B for 5 minutes; buffer A: 95:5 water:acetonitrile, 0.1% formic acid; buffer B: 80:20 acetonitrile:water, 0.1% formic acid). The samples were then attached using a MicroTee PEEK 360 μm fitting to a laser pulled column (13 cm) packed with Aqua C18 reverse-phase resin (10 cm) and strong-cation exchange resin (3 cm) for isoTOP-ABPP studies. Samples were analyzed using an Q Exactive Plus mass spectrometer using a 5-step Multidimensional Protein Identification Technology (MudPIT) program. […]

In assay [4] the test system is cysteines profiled in 231MFP cells. The assay can be described thus: isoTOP-ABPP proteome-wide selectivity. The settings on record: 100 μM, out of >1000 cysteines profiled. In kind it is binding. On the procedure:
IsoTOP-ABPP studies were performed using the methods described in “Nature 534(7608), 570-574 (2016)” by Backus K. M., et al. and “Nature 468(7325), 790-795 (2010)” by Weerapana E., et al. Proteome samples diluted in PBS were treated with Withaferin A or vehicle for 30 minutes at 37° C. Then, IAyne (iodoacetamide-alkyne) labeling was performed for 1 hour at room temperature. CuAAC was used by sequential addition of tris(2-carboxyethyl)phosphine (1 mM), tris[(1-benzyl-1H-1,2,3-triazol-4-yl)methyl]amine (34 μM), copper (II) sulfate (1 mM), and biotin-linker-azide where the linker was functionalized with a TEV protease recognition sequence along with an isotopically light or heavy valine for treatment of control or treated proteome, respectively. After click reactions, proteomes were precipitated by centrifugation at 6500×g, washed in ice-cold methanol, combined in a 1:1 control/treated ratio, washed again, then denatured and re-solubilized by heating in 1.2% SDS/PBS to 80° C. for 5 minutes. […]
Peptides from all proteomic experiments were pressure-loaded onto an Agilent 600 series RP-HPLC system equipped with a capillary tubing (250 mm) packed with Aqua C18 reverse-phase resin (4 cm). […] Samples were analyzed using an Q Exactive Plus mass spectrometer using a 5-step Multidimensional Protein Identification Technology (MudPIT) program. […]

T1 sequence (P30153 whole entry): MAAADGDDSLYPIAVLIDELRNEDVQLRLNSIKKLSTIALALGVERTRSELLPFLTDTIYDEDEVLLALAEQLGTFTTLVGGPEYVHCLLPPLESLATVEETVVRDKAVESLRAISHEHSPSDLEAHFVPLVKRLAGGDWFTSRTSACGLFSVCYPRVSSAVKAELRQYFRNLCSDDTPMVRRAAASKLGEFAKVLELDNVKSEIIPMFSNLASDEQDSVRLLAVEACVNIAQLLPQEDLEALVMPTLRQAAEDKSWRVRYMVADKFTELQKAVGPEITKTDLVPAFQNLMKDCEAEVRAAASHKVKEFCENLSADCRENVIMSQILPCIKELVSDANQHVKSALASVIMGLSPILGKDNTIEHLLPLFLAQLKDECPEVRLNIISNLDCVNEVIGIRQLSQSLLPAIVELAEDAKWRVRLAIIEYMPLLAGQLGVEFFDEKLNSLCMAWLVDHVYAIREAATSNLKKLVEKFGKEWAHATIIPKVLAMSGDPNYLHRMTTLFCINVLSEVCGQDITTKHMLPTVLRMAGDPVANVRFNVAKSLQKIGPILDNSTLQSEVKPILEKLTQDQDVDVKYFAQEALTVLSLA

In the case of `CC1=C(CO)C(=O)O[C@@H]([C@@H](C)[C@H]2CC[C@H]3[C@@H]4C[C@H]5O[C@]56[C@@H](O)C=CC(=O)[C@]6(C)[C@H]4CC[C@]23C)C1` [withaferin A, reference compound], the serum-free cell survival entry in assay [1] (10 μM) is reported as “impairs”. For the same molecule, the “isotopically light to heavy ratio, C377 of PPP2R1A” value (“isotopically light to heavy ratio” below) in assay [2] (10 μM) is 4.0; in assay [3] (10 μM, 30 min pre-incubation, IAyne 100 μM), over 5.
With `O=C(CCl)N(Cc1ccccc1)c1ccc2c(c1)OCCO2` [JNS 1-40, N-benzyl-2-chloro-N-(2,3-dihydrobenzo[b][1,4]dioxin-6-yl)acetamide], the serum-free cell survival entry in assay [1] (100 μM) is given as “impaired”. Besides, the “isotopically light to heavy ratio” value is given as over 5 in assay [2] (100 μM) and over 5 in assay [3] (100 μM, 30 min pre-treatment). Besides, the “total sites showing >5 light to heavy ratio” value in assay [4] is “only target”.
`O=C(CCl)Nc1ccc2c(c1)OCCO2` [DKM 2-90, 2-Chloro-N-(2,3-dihydrobenzo[β][1,4]dioxin-6-yl)acetamide]: the “isotopically light to heavy ratio” value in assay [2] (100 μM) is given as 5.9; in assay [3] (100 μM, 30 min pre-treatment) it was “quite selectively targeted C377 of PPP2R1A”. In assay [4], the “total sites showing >5 light to heavy ratio” value is listed as 5.
